Test results taken from patent publication US8877748B2, “Heterocyclic fused anthraquinone derivatives, manufacturing method and pharmaceutical composition using thereof” (National Defense Medical Center, priority 2012, dated 2014).

Tests used:
DU145 = test: NCI one-dose screening, prostate cancer DU145; type: cell-based, human; settings: 10 μM
MDA, -MB-435 = test: NCI one-dose screening, breast cancer MDA, -MB-435; type: cell-based, human; settings: 10 μM; listed under Melanoma
SF-268 = test: NCI one-dose screening, CNS cancer SF-268; type: cell-based, human; settings: 10 μM
IGROV1 = test: NCI one-dose screening, ovarian cancer IGROV1; type: cell-based, human; settings: 10 μM
NCI-H23 = test: NCI one-dose screening, non-small cell lung cancer NCI-H23; type: cell-based, human; settings: 10 μM
UACC-257 = test: NCI one-dose screening, melanoma UACC-257; type: cell-based, human; settings: 10 μM
M14 = test: NCI one-dose screening, melanoma M14; type: cell-based, human; settings: 10 μM
NCI-H522 = test: NCI one-dose screening, non-small cell lung cancer NCI-H522; type: cell-based, human; settings: 10 μM
EKVX = test: NCI one-dose screening, non-small cell lung cancer EKVX; type: cell-based, human; settings: 10 μM
HT29 = test: NCI one-dose screening, colon cancer HT29; type: cell-based, human; settings: 10 μM
HOP-62 = test: NCI one-dose screening, non-small cell lung cancer HOP-62; type: cell-based, human; settings: 10 μM
U251 = test: NCI one-dose screening, CNS cancer U251; type: cell-based, human; settings: 10 μM
SNB-19 = test: NCI one-dose screening, CNS cancer SNB-19; type: cell-based, human; settings: 10 μM
HCT-15 = test: NCI one-dose screening, colon cancer HCT-15; type: cell-based, human; settings: 10 μM
T-47D = test: NCI one-dose screening, breast cancer T-47D; type: cell-based, human; settings: 10 μM
TK-10 = test: NCI one-dose screening, renal cancer TK-10; type: cell-based, human; settings: 10 μM
PRMI-8226 cell line = test: NCI one-dose screening, leukemia PRMI-8226; type: cell-based, human; settings: 10 μM
SR = test: NCI one-dose screening, leukemia SR; type: cell-based, human; settings: 10 μM
[1] = test system: PC-3 prostate cancer cell line; test: SRB assay cell viability, PC-3 prostate cancer cell line; type: cell-based, human; settings: Homo sapiens, PC-3 prostate cancer cell line, Table II prints no unit, μM printed, read-out: SRB assay: 50% inhibition of cancer cell proliferation of sample concentration (IC50) of PC-3 prostate cancer cell line
OVCAR-8 = test: NCI one-dose screening, ovarian cancer OVCAR-8; type: cell-based, human; settings: 10 μM
RXF, 393 = test: NCI one-dose screening, renal cancer RXF, 393; type: cell-based, human; settings: 10 μM
SK-MEL-2 = test: NCI one-dose screening, melanoma SK-MEL-2; type: cell-based, human; settings: 10 μM
NCI-H460 = test: NCI one-dose screening, non-small cell lung cancer NCI-H460; type: cell-based, human; settings: 10 μM
NCI-H226 = test: NCI one-dose screening, non-small cell lung cancer NCI-H226; type: cell-based, human; settings: 10 μM
HOP-92 = test: NCI one-dose screening, non-small cell lung cancer HOP-92; type: cell-based, human; settings: 10 μM
BT-549 = test: NCI one-dose screening, breast cancer BT-549; type: cell-based, human; settings: 10 μM
HCT-116 = test: NCI one-dose screening, colon cancer HCT-116; type: cell-based, human; settings: 10 μM
MALME-3M = test: NCI one-dose screening, melanoma MALME-3M; type: cell-based, human; settings: 10 μM
NCl/ADR-RES = test: NCI one-dose screening, breast cancer NCl/ADR-RES; type: cell-based, human; settings: 10 μM; listed under Ovarian cancer
MDA-MB-468 = test: NCI one-dose screening, breast cancer MDA-MB-468; type: cell-based, human; settings: 10 μM
HCC-2998 = test: NCI one-dose screening, colon cancer HCC-2998; type: cell-based, human; settings: 10 μM
KM12 = test: NCI one-dose screening, colon cancer KM12; type: cell-based, human; settings: 10 μM
HL-60, TB = test: NCI one-dose screening, leukemia HL-60, TB; type: cell-based, human; settings: 10 μM
A549/ATCC = test: NCI one-dose screening, non-small cell lung cancer A549/ATCC; type: cell-based, human; settings: 10 μM
PC-3 = test: NCI one-dose screening, prostate cancer PC-3; type: cell-based, human; settings: 10 μM
MOLT-4 = test: NCI one-dose screening, leukemia MOLT-4; type: cell-based, human; settings: 10 μM
CAKI-1 = test: NCI one-dose screening, renal cancer CAKI-1; type: cell-based, human; settings: 10 μM
COLO 205 = test: NCI one-dose screening, colon cancer COLO 205; type: cell-based, human; settings: 10 μM
K562cell line = test: NCI one-dose screening, leukemia K562; type: cell-based, human; settings: 10 μM
SK-MEL-5 = test: NCI one-dose screening, melanoma SK-MEL-5; type: cell-based, human; settings: 10 μM
SK-OV-3 = test: NCI one-dose screening, ovarian cancer SK-OV-3; type: cell-based, human; settings: 10 μM
LOX IMVI = test: NCI one-dose screening, melanoma LOX IMVI; type: cell-based, human; settings: 10 μM
OVCAR-5 = test: NCI one-dose screening, ovarian cancer OVCAR-5; type: cell-based, human; settings: 10 μM
UACC-62 = test: NCI one-dose screening, melanoma UACC-62; type: cell-based, human; settings: 10 μM
MDA-MB-231/ATCC = test: NCI one-dose screening, breast cancer MDA-MB-231/ATCC; type: cell-based, human; settings: 10 μM
786-O = test: NCI one-dose screening, renal cancer 786-O; type: cell-based, human; settings: 10 μM
SF-539 = test: NCI one-dose screening, CNS cancer SF-539; type: cell-based, human; settings: 10 μM
MCF7 = test: NCI one-dose screening, breast cancer MCF7; type: cell-based, human; settings: 10 μM
ACHN = test: NCI one-dose screening, renal cancer ACHN; type: cell-based, human; settings: 10 μM
SNB-75 = test: NCI one-dose screening, CNS cancer SNB-75; type: cell-based, human; settings: 10 μM
human tumor cell lines = test: NCI one-dose screening, Mean / Delta / Range of growth percent over all tested cell lines; type: cell-based; settings: 10 μM
SN12C = test: NCI one-dose screening, renal cancer SN12C; type: cell-based, human; settings: 10 μM
HS 578-T = test: NCI one-dose screening, breast cancer HS 578-T; type: cell-based, human; settings: 10 μM; Breast cancer
SK-MEL-28 = test: NCI one-dose screening, melanoma SK-MEL-28; type: cell-based, human; settings: 10 μM
[2] = NCI one-dose screening, renal cancer A489; type: cell-based, human; settings: 10 μM
OVCAR-3 = test: NCI one-dose screening, ovarian cancer OVCAR-3; type: cell-based, human; settings: 10 μM
UO-31 = test: NCI one-dose screening, renal cancer UO-31; type: cell-based, human; settings: 10 μM

Compound: COc1ccc(Sc2cc3c(c4nsnc24)C(=O)c2ccccc2C3=O)cc1 [C41, 4-(4-methoxy-phenyl-thio)anthra[2,1-c] [1,2,5]thiadiazol-6,11-dione]
- Growth Percent DU145 (DU145): 112.48%
- Growth Percent MDA-MB-435 (MDA, -MB-435): 118.61%
- Growth Percent SF-268 (SF-268): 94.81%
- Growth Percent IGROV1 (IGROV1): 103.17%
- Growth Percent NCI-H23 (NCI-H23): 89.13%
- Growth Percent UACC-257 (UACC-257): 118.11%
- Growth Percent M14 (M14): 92.89%
- Growth Percent NCI-H522 (NCI-H522): 95.69%
- Growth Percent EKVX (EKVX): 148.76%
- Growth Percent HT29 (HT29): 101.30%
- Growth Percent HOP-62 (HOP-62): 95.20%
- Growth Percent U251 (U251): 102.73%
- Growth Percent SNB-19 (SNB-19): 113.97%
- Growth Percent HCT-15 (HCT-15): 109.35%
- Growth Percent T-47D (T-47D): 89.66%
- Growth Percent TK-10 (TK-10): 135.79%
- Growth Percent RPMI-8226 (PRMI-8226 cell line): 101.16%
- Growth Percent SR (SR): 101.71%
- IC50 [1]: > 15 µM
- Growth Percent OVCAR-8 (OVCAR-8): 99.50%
- Growth Percent RXF 393 (RXF, 393): 109.28%
- Growth Percent SK-MEL-2 (SK-MEL-2): 99.24%
- Growth Percent NCI-H460 (NCI-H460): 107.16%
- Growth Percent NCI-H226 (NCI-H226): 79.51%
- Growth Percent HOP-92 (HOP-92): 91.38%
- Growth Percent BT-549 (BT-549): 92.92%
- Growth Percent HCT-116 (HCT-116): 94.64%
- Growth Percent MALME-3M (MALME-3M): 89.52%
- Growth Percent NCI/ADR-RES (NCl/ADR-RES): 97.60%
- Growth Percent MDA-MB-468 (MDA-MB-468): 112.95%
- Growth Percent HCC-2998 (HCC-2998): 106.85%
- Growth Percent KM12 (KM12): 101.28%
- Growth Percent HL-60(TB) (HL-60, TB): 102.73%
- Growth Percent A549/ATCC (A549/ATCC): 103.32%
- Growth Percent PC-3 (PC-3): 82.81%
- Growth Percent MOLT-4 (MOLT-4): 82.89%
- Growth Percent CAKI-1 (CAKI-1): 108.29%
- Growth Percent COLO 205 (COLO 205): 112.25%
- Growth Percent K562 (K562cell line): 91.98%
- Growth Percent SK-MEL-5 (SK-MEL-5): 106.14%
- Growth Percent SK-OV-3 (SK-OV-3): 106.18%
- Growth Percent LOX IMVI (LOX IMVI): 90.24%
- Growth Percent OVCAR-5 (OVCAR-5): 103.00%
- Growth Percent UACC-62 (UACC-62): 108.99%
- Growth Percent MDA-MB-231/ATCC (MDA-MB-231/ATCC): 87.58%
- Growth Percent 786-0 (786-O): 94.93%
- Growth Percent SF-539 (SF-539): 93.53%
- Growth Percent MCF7 (MCF7): 93.78%
- Growth Percent ACHN (ACHN): 102.26%
- Growth Percent SNB-75 (SNB-75): 79.05%
- Growth Percent Delta (human tumor cell lines; delta over all cell lines): 32.46%
- Growth Percent Mean (human tumor cell lines; mean over all cell lines): 1000.77%
- Growth Percent Range (human tumor cell lines; range over all cell lines): 80.45%
- Growth Percent SN12C (SN12C): 106.54%
- Growth Percent HS 578T (HS 578-T): 96.71%
- Growth Percent SK-MEL-28 (SK-MEL-28): 115.63%
- Growth Percent A498 [2]: 84.77%
- Growth Percent OVCAR-3 (OVCAR-3): 109.57%
- Growth Percent UO-31 (UO-31): 68.31%
